Experimental data taken from US5011930A, “Quinoline type mevalonolactones” (Nissan Chemical Industries Ltd., priority 1987, dated 1991).
Counter-ions that a name gives are not always drawn.

system: cholesterol biosynthesis in Hep G2 cells; test: Test B-1: Inhibition of cholesterol biosynthesis in culture cells (Hep G2); type: cell-based; conditions: Homo sapiens, HepG2, [2-^14 C]sodium acetate added at 0 hr after addition of compounds, 4 hrs incubation, read-out: Inhibitory activities by Test B-1: I50 (molar concentration)
Method: Hep G2 cells at over 5th passage were seeded to 12 well plates and incubated with Dulbecco's modified Eagle (DME) medium containing 10% of fetal bovine serum (FBS) at 37° C., 5% CO2 until cells were confluent for about 7 days. Cells were exposed to the DME medium containing 5% of lipoprotein deficient serum (LpDS) prepared by ultracentrifugation method for over 24 hours. Medium was changed to 0.5 ml of fresh 5% LpDS containing DME before assay and 10 μl of test compound solution dissolved in water or DMSO were added. 0.2 μCi of [2-^14 C]sodium acetate (20 μl) was added at 0 hr(B-1) or 4 hrs(B-2) after addition of compounds. After 4 hrs further incubation with [2-^14 C]sodium acetate, medium was removed and cells were washed with phosphate buffered saline(PBS) chilled at 4° C. Cells were scraped with rubber policeman and collected to tubes with PBS and digested with 0.2 ml of 0.5 N KOH at 37° C. Aliquot of digestion was used for protein analysis and remaining was saponified with 1 ml of 15% EtOH--KOH at 75° C. for 1 hour. […] Counts were revised by cell protein and indicated with DPM/mg protein. Inhibitory activity of compounds was indicated with IC50.

**Q.** `CC(C)c1nc2ccccc2c(-c2ccc(F)cc2)c1/C=C/C(O)CC(O)CC(=O)O` (stereo not drawn) [I-51, Sodium salt of (E)-3,5-dihydroxy-7-[4'-(4"-fluorophenyl)-2'-(1"-methylethyl)-quinolin-3'-yl]-hept-6-enoic acid] was tested. Which IC50 did it give?
**A.** 100 nM

same assay, conditions: relative to the activity of CS-514 being evaluated to be 1

**Q.** For `CCOC(=O)CC(O)CC(O)/C=C/c1c(C(C)C)nc2cc(OC)c(OC)cc2c1-c1ccc(F)cc1` (stereo not drawn) [I-116], which “Relative activities by Test B-1” value is on record?
**A.** 19.4

**Q.** Which “Relative activities by Test B-1” value does the source give for `O=C(O)CC(O)CC(O)/C=C/c1c(C2CC2)nc2ccccc2c1-c1ccc(F)cc1` (stereo not drawn) [I-520] here?
**A.** 20.0

**Q.** For `CCOC(=O)CC(=O)CC(O)/C=C/c1c(C2CC2)nc2ccccc2c1-c1ccc(F)cc1` (stereo not drawn) [II-20], which “Relative activities by Test B-1” value is on record?
**A.** 20.8

system: cholesterol biosynthesis; test: Test A: Inhibition of cholesterol biosynthesis from acetate in vitro; type: biochemical, male Wistar rat (liver microsome and sup fraction); conditions: [2-^14 C]sodium acetate incorporation into nonsaponifiable lipids, 2 hours at 37° C.; IC50; read-out: Inhibitory activities by Test A: I50 (molar concentration)
Method: Enzyme solution was prepared from liver of male Wistar rat billialy cannulated and discharged bile for over 24 hours. Liver was cut out at mid-dark and microsome and supernatant fraction which was precipitable with 40-80% of saturation of ammonium sulfate (sup fraction) were prepared from liver homogenate according to the modified method of Knauss et. al.; Kuroda, M., et. al., Biochim. Biophys. Acta, 489, 119 (1977). For assay of cholesterol biosynthesis, microsome (0.1 mg protein) and sup fraction (1.0 mg protein) were incubated for 2 hours at 37° C. in 200 μl of the reaction mixture containing ATP; 1 mM, Glutathione; 6 mM, Glucose-1-phosphate; 10 mM, NAD; 0.25 mM, NADP; 0.25 mM, CoA; 0.04 mM and 0.2 mM [2-^14 C]sodium acetate (0.2 μCi) with 4 μl of test compound solution dissolved in water or dimethyl sulfoxide. To stop reaction and saponify, 1 ml of 15% EtOH-KOH was added to the reactions and heated at 75° C. for 1 hour. […] Inhibitory activity of compounds was indicated with IC50.

**Q.** How did the IC50 turn out when `CC[C@H](C)C(=O)O[C@H]1C[C@H](O)C=C2C=C[C@H](C)[C@H](CC[C@@H](O)C[C@@H](O)CC(=O)O)[C@H]21` [CS-514, reference compound] was run?
**A.** 9 nM

**Q.** Which IC50 does the source give for `CCOC(=O)CC(O)CC(O)/C=C/c1c(C)nc2ccccc2c1-c1ccccc1` (stereo not drawn) [I-13] here?
**A.** 125 nM

**Q.** With `CC(C)c1nc2ccccc2c(-c2ccc(F)cc2)c1/C=C/C(O)CC(O)CC(=O)O` (stereo not drawn) [I-51, Sodium salt of (E)-3,5-dihydroxy-7-[4'-(4"-fluorophenyl)-2'-(1"-methylethyl)-quinolin-3'-yl]-hept-6-enoic acid] as the molecule, how does the IC50 read?
**A.** 10 nM

**Q.** Which IC50 does the source give for `Cc1nc2ccccc2c(-c2ccc(F)cc2)c1/C=C/C(O)CC(O)CC(=O)O` (stereo not drawn) [I-52] here?
**A.** 71 nM

**Q.** `Cc1nc2ccccc2c(-c2ccccc2)c1/C=C/C(O)CC(O)CC(=O)O` (stereo not drawn) [I-53] was tested. Which IC50 did it give?
**A.** 190 nM

**Q.** For `CC[C@H](C)C(=O)O[C@H]1C[C@@H](C)C=C2C=C[C@H](C)[C@H](CC[C@@H]3C[C@@H](O)CC(=O)O3)[C@H]21` [Mevinolin, reference compound], which IC50 is on record?
**A.** 14 nM

same assay, conditions: relative to the activity of CS-514 being evaluated to be 1

**Q.** How did the “Relative activities by Test A” value turn out when `CCOC(=O)CC(O)CC(O)/C=C/c1c(C(C)C)nc2ccc(Cl)cc2c1-c1ccccc1` (stereo not drawn) [I-16] was run?
**A.** 1.75

**Q.** With `CCOC(=O)CC(O)CC(O)/C=C/c1c(C(C)C)nc2cc(OC)c(OC)cc2c1-c1ccc(F)cc1` (stereo not drawn) [I-116] as the molecule, how does the “Relative activities by Test A” value read?
**A.** 2.25

**Q.** Which “Relative activities by Test A” value does the source give for `CCOC(=O)CC(O)CC(O)/C=C/c1c(CC)nc2ccccc2c1-c1ccc(F)cc1` (stereo not drawn) [I-117] here?
**A.** 0.37

**Q.** How did the “Relative activities by Test A” value turn out when `CCOC(=O)CC(O)CC(O)/C=C/c1c(C2CC2)nc2ccccc2c1-c1ccc(F)cc1` (stereo not drawn) [I-120] was run?
**A.** 3.21

**Q.** With `CC(C)c1nc2c(Cl)cc(Cl)cc2c(-c2ccc(F)cc2)c1/C=C/C(O)CC(O)CC(=O)O` (stereo not drawn) [I-522] as the molecule, how does the “Relative activities by Test A” value read?
**A.** 0.76
